Measured values published in patent publication US6887902B2, “Anti-inflammatory method using gamma-aminobutyric acid (GABA) analogs” (Warner-Lambert Company, priority 1997, dated 2005).

Experiments:
[1] = system: kaolin and carrageenan knee joint arthritis; assay: acute experimental arthritis by kaolin and carrageenan in the knee joint, spinal infusion of pregabalin or its R-isomer; conditions: for PWL (thermal paw withdrawal latency) compared to baseline: 10 mg/mL infused into dorsal horn alone, before induction of arthritis; for thermal hyperalgesia (PWL) at 5.5 hours: 0.9 mg/mL infused into dorsal horn after development of arthritis; for PWL after infusion: 10 mg/mL infused after inflammation of the knee joint; for spontaneous pain (paw posture): both doses (0.9 and 10 mg/mL); for secondary thermal hyperalgesia (PWL) / abnormal paw posture indicative of spontaneous pain / reduction of knee joint swelling compared to aCSF rats: pre-treatment; for secondary thermal hyperalgesia (PWL): 10 mg/mL spinal infusion for 1.5 hours before kaolin and carrageenan, 4 hours post-injection; for abnormal paw posture indicative of spontaneous pain: spinal infusion before induction of arthritis; for reduction of knee joint swelling compared to aCSF rats: spinal infusion for 1.5 hours before induction of arthritis, P<0.05
Procedure: Acute experimental arthritis was induced in rats by injection of kaolin and carrageenan into the knee joint. […] Concomitant with the injury to the joint tissue, both peripheral and central sensitization occurs, which is manifested in the awake rat as hyperalgesia, which can be easily quantified by measuring a reduction in paw withdrawal latencies to a radiant heat source. Both pregabalin and its R-stereoisomer (R-(−)-3-IBG) were administered before inflammation was induced, and after the inflammation was developed.
Thirty-six male Sprague-Dawley rats (235-380 g) were anesthetized with sodium pentobarbital (Nembutal; 50 mg/kg^−1 i.p.). A microdialysis fiber (200 μm o.d., 45000 MW Cut-off, Hospal AN69) was coated with epoxy resin, except for a 2 mm section. A small midline incision was made in the back at the level of the last rib. The muscle was then removed from around the T12 vertebra and a hole drilled in both lateral aspects. The microdialysis fiber was then passed transversely through the dorsal horn of the spinal cord between lumbar segments L4-L6 so that the permeable 2 mm of the fiber lay in the dorsal horn. The microdialysis fiber was connected to PE20 tubing (Becton and Dickson) which was then tunneled under the skin to the nape of the neck. The fiber was stabilized with dental cement. Artificial cerebrospinal fluid (aCSF) was pumped through the tubing at a rate of 5 μL/min for 1 hour before the PE20 was sealed and the animals allowed to recover.
As a measure of thermal hyperalgesia, animals were tested for paw withdrawal to radiant heat. On the day following fiber placement, animals were housed in small lucite cubicles on an elevated glass plate. Radiant heat was applied to the plantar surface of the heel of the hindpaw until the rat lifted the paw. The time at which this occurred was considered the paw withdrawal latency (PWL). Both paws were tested independently at 5-minute intervals, for a total of 5 trials. A mean of these five readings was used as the PWL. […] PWL was measured for a final time 4 hours after arthritis induction. In the post-treatment group, the animals were tested before induction of arthritis in the knee joint (control), 4-hours post-induction, and 1.5 hours after of drug infusion, i.e. 5.5 hours after arthritis induction. A decrease in the PWL to radiant heat in an animal with knee joint inflammation is indicative of secondary hyperalgesia.
The circumference of the knee joint was also measured before injection of kaolin and carrageenan (control) using a flexible tape measure. The extent of guarding of the hindpaw was also noted after arthritis was induced. To quantify these changes, the animals were graded by a subjective pain rating scale (0-5), where: 0 is normal; 1 is curling of the toes; 2 is eversion of the paw; 3 is partial weight bearing; 4 is non-weight bearing and guarding; and 5 is avoidance of any contact with the hindlimb.
Rats were anesthetized briefly with sodium methohexital (Brevital; 60 mg/kg^−1 i.p.) after the control behavioral test (post-treatment group) or after infusion of the drug (pre-treatment group). The knee joint was then injected with 3% kaolin and 3% carrageenan suspended in sterile saline (0.1 mL; pH 7.4). The knee joint was then flexed manually until the rat awoke (approximately 5 minutes).
All GABA analogs were dissolved in an artificial cerebral spinal fluid solution (aCSF) (pH 7.4, adjusted by bubbling with 95% CO2/5% O2) and infused through the spinal cord at 5 μL/min^−1. The animals received either pregabalin, R-(−)-3-IBG, or aCSF.

[2] = system: SCW (PG-PS) induced reactivation arthritis, ankle swelling; assay: streptococcal cell wall (SCW) induced reactivation arthritis assay; format: in vivo, Female Lewis rats
Procedure: The assay is a streptococcal cell wall (SCW) induced reactivation arthritis assay. Female Lewis rats were injected intra-articularly with 10 μL of 100 p fraction peptidoglyean polysaccharide (PG-PS) suspended in phosphate buffered saline (PBS). The contralateral joints were injected with PBS as control. Systemic challenge with 100 μg of PG-PS was given via the tail vein 21 days after the initial inoculation. The animals were dosed orally three times a day with pregabalin (3, 10, and 30 mg/kg) on a 12-hour cycle for 72 hours. The first dose was given 1 hour before the systemic challenge.
The volume of the ankles increased by about 0.5 mL within 72 hours. Pregabalin at 10 and 30 mg/kg dose dependently attenuated the increase in edema up to 40% during the 72-hour observation period.

## CC(C)C[C@H](CN)CC(=O)O [Pregabalin, (S)-3-(aminomethyl)-5-methylhexanoic acid]
[1]
  PWL (thermal paw withdrawal latency) compared to baseline: did not change PWL
  secondary thermal hyperalgesia (PWL): no secondary thermal hyperalgesia was observed
  abnormal paw posture indicative of spontaneous pain: prevented the development of abnormal paw posture
  reduction of knee joint swelling compared to aCSF rats: approximately 30%
[1]; post-treatment
  thermal hyperalgesia (PWL) at 5.5 hours: reduced the thermal hyperalgesia
  PWL after infusion: return of the PWL to the control value
  spontaneous pain (paw posture): spontaneous pain was also reduced
[1]; post-treatment, spinal infusion
  comparison of the isomers in reducing thermal hyperalgesia: more effective in reducing thermal hyperalgesia than its R-isomer
[2]; 10 and 30 mg/kg oral, dose dependent, 72-hour observation period
  attenuation of the increase in edema: up to 40%
[2]; Day 22, pregabalin oral 3.0 mg/kg, vehicle group 0.20
  Swelling (delta edema, mL): 0.12 mL
[2]; Day 22, pregabalin oral 10.0 mg/kg, vehicle group 0.20
  Swelling (delta edema, mL): 0.04 mL
[2]; Day 22, pregabalin oral 30.0 mg/kg, vehicle group 0.20
  Swelling (delta edema, mL): 0.06 mL
[2]; Day 23, pregabalin oral 3.0 mg/kg, vehicle group 0.45
  Swelling (delta edema, mL): 0.38 mL
[2]; Day 23, pregabalin oral 10.0 mg/kg, vehicle group 0.45
  Swelling (delta edema, mL): 0.25 mL
[2]; Day 23, pregabalin oral 30.0 mg/kg, vehicle group 0.45
  Swelling (delta edema, mL): 0.20 mL
[2]; Day 24, pregabalin oral 3.0 mg/kg, vehicle group 0.50
  Swelling (delta edema, mL): 0.50 mL
[2]; Day 24, pregabalin oral 10.0 mg/kg, vehicle group 0.50
  Swelling (delta edema, mL): 0.31 mL
[2]; Day 24, pregabalin oral 30.0 mg/kg, vehicle group 0.50
  Swelling (delta edema, mL): 0.21 mL

## CC(C)C[C@@H](CN)CC(=O)O [R-(−)-3-IBG]
[1]
  PWL (thermal paw withdrawal latency) compared to baseline: did not change PWL
  secondary thermal hyperalgesia (PWL): no secondary thermal hyperalgesia was observed
  abnormal paw posture indicative of spontaneous pain: prevented the development of abnormal paw posture
  reduction of knee joint swelling compared to aCSF rats: approximately 30%
[1]; post-treatment
  thermal hyperalgesia (PWL) at 5.5 hours: reduced the thermal hyperalgesia
  PWL after infusion: return of the PWL to the control value
  spontaneous pain (paw posture): spontaneous pain was also reduced
